For test [1], the target named is T1, PI3K1_N SH2 domain (Homo sapiens, UniProt P27986). Kind of test: SPOT peptide array. Type of test: binding. The settings on record: GST-SH2 0.25 μM, membrane-bound peptide, 1 mM DTT, LiCor read-out. An excerpt: (§1) The use of addressable peptide arrays is a reproducible and semi-quantitative approach that has been extensively validated for studying protein interactions with peptide ligands. To investigate connections between SH2 domain proteins and their putative phosphorylated docking sites on cell surface receptors, we developed addressable arrays consisting of 192 phosphotyrosine peptides. This peptide set was assembled using 71 phosphotyrosine peptide motifs corresponding to all of the cytoplasmic tyrosine residues within the FGF receptors (FGFR1-4), insulin receptor (InsR) and IGF-1 receptor (IGF-1R) (Figure 1A). Activation of these receptors results in the phosphorylation of associated scaffold proteins, and so 75 phosphotyrosine peptides corresponding to a comprehensive list of tyrosine residues within insulin receptor substrates (IRS-1 and IRS-2) and fibroblast receptor substrates (FRS-2 and FRS-3) were included. In addition, 33 phosphotyrosine peptides were incorporated from the downstream signaling proteins PLC-γ1, p130Cas (BCAR1) and p62DOK1. […] These control peptides provide a reference and establish the empirical cut-off for designated binding interactions (Table 1). No discrimination was made against peptides on the basis of reported phosphorylation state in order to examine a diverse and unbiased set of motifs. The resulting set of 192 phosphotyrosine peptides and their corresponding position in the proteins of origin is noted in Additional file 1: Table S1. Addressable arrays were synthesized as membrane-bound 11-mer peptides using the SPOT synthesis technique. While the majority of SH2 domains recognize residues C-terminal to the phosphotyrosine in their cognate peptide ligands, additional contacts between SH2 domains and residues N-terminal to the phosphotyrosine are observed for the SH2 domain of Sh2d1a (SAP) and cannot be ruled out in other cases. Peptides were synthesized with six flanking residues C-terminal to the phosphotyrosine and four residues N-terminal to the phosphotyrosine.
T1 sequence (P27986 333-428 limits assumed): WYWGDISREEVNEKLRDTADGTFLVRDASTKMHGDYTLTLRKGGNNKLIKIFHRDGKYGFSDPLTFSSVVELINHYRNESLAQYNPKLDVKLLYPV
(§2) SH2 domains were arrayed as GST fusion proteins and detected using anti-GST primary antibodies and near-infrared labeled secondary antibodies. In an effort to present a dataset with minimal false positives, we chose an empirical cutoff based on the array average across all peptide spots to classify interactions (Figure 1A). In cases where the intensity of the signal for an individual SH2-domain binding event exceeded the mean intensity of all the peptides on the membrane by three-fold were scored as “array positives” [22]. Non-binding was judged in cases where the intensity of a spot was less than the mean intensity of all spots on the membrane and these were scored as “array negatives”. Peptides with signal intensities between 1X and 3X mean were scored as “indeterminate” and ascribed as neither array positive binding interactions nor array-negative non-binders. […] This signature may be indicative of promiscuity differences between phosphopeptides or there may be a subset of peptides which interact in a nonspecific fashion with either the GST fusion tag or one of the antibodies used for detection, resulting in false positives. Consistent with our goal of reducing the errors associated with identifying false-positives, we probed three separate arrays with three separate preps of the GST fusion tag alone. Potentially non-specificly interacting peptides (so-called ‘sticky’ peptides) were identified as any that bound to GST with above mean intensity in two out of three separate trials. This approach identifies any peptides which interact with GST or either of the recognition antibodies, a known confounding factor for downstream analysis. This conservative approach allows us to score many significant peptides as ‘binders’ which may have been indeterminate before when incorporating the ‘sticky’ peptides into the array average. […]

Test [2] addresses T1, PI3K1_N SH2 domain. Also noted: method as in PMID 8384875. The settings on record: cited from earlier work.
For test [3], the target named is T2, Crk SH2 domain (Homo sapiens, UniProt P46108). Also noted: method as in earlier work. The settings on record: SH2 protein microarray; N.B. = non binding; read-out: Protein Microarray (Macbeath) – KD; cited from earlier work.
T2 sequence (P46108 13-118 limits assumed): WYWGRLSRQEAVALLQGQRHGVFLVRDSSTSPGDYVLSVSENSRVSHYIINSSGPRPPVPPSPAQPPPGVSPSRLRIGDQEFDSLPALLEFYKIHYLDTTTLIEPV
Test [4] deals with T3, Abl2 SH2 domain (Homo sapiens, UniProt P42684).
T3 sequence (P42684 173-263 limits assumed): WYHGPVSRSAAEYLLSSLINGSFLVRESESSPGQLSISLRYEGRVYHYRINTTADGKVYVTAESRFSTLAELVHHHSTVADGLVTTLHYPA
Also noted: method as in earlier work. Particulars: SH2 protein microarray; N.B. = non binding; read-out: Protein Microarray (Macbeath) – KD; cited from earlier work.

Test [5] concerns the target CrkL SH2 domain (Homo sapiens, UniProt P46109). Also on record: method as in earlier work. Particulars: SH2 protein microarray; N.B. = non binding; read-out: Protein Microarray (Macbeath) – KD; cited from earlier work.
Test [6] addresses T4, Ptpn11_N SH2 domain (Homo sapiens, UniProt Q06124).
T4 sequence (Q06124 6-102 limits assumed): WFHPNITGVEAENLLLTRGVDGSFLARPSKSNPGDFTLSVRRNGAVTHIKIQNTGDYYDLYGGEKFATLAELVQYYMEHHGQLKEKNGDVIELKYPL
Also noted: method as in 5 sources, one per row (each row's own in cited_ref): ref [107] = [107]; PMID 8144631; Case RD Piccione E Wolf G Benett AM Lechleider RJ Neel BG Shoelson SE SH-PTP2/Syp SH2 domain binding specificity is defined by direct interactions with platelet-derived growth factor beta-receptor, ep ||| ref [107, 108] = [107]; PMID 8144631; Case RD Piccione E Wolf G Benett AM Lechleider RJ Neel BG Shoelson SE SH-PTP2/Syp SH2 domain binding specificity is defined by direct interactions with platelet-derived growth factor beta-receptor, ep || [108]; PMID 7504175; doi:10.1128/mcb.13.12.7418-7428.1993; Sun XJ Crimmins DL Myers MG Jr Miralpeix M White MF Pleiotropic insulin signals are engaged by multisite phosphorylation of IRS-1 Mol Cell Biol 1993 13 7418 7428 7504175 10.1128/mcb.13.12.7418-7428.19 ||| ref [95, 108, 110] = [95]; PMID 9422724; doi:10.1074/jbc.273.2.729; Ottinger EA Botfield MC Shoelson SE Tandem SH2 domains confer high specificity in tyrosine kinase signaling J Biol Chem 1998 273 729 735 9422724 10.1074/jbc.273.2.729 || [108]; PMID 7504175; doi:10.1128/mcb.13.12.7418-7428.1993; Sun XJ Crimmins DL Myers MG Jr Miralpeix M White MF Pleiotropic insulin signals are engaged by multisite phosphorylation of IRS-1 Mol Cell Biol 1993 13 7418 7428 7504175 10.1128/mcb.13.12.7418-7428.19 || [110]; PMID 9756938; doi:10.1074/jbc.273.41.26908; Myers MG Jr Mendez R Shi P Pierce JH Rhoads R White MF The COOH-terminal tyrosine phosphorylation sites on IRS-1 bind SHP-2 and negatively regulate insulin signaling J Biol Chem 1998 273 26908 26914 9 ||| ref 107 (IRS-1 Y896 also 108) ||| ref 95, 108, 110 = [95]; PMID 9422724; doi:10.1074/jbc.273.2.729; Ottinger EA Botfield MC Shoelson SE Tandem SH2 domains confer high specificity in tyrosine kinase signaling J Biol Chem 1998 273 729 735 9422724 10.1074/jbc.273.2.729 || [108]; PMID 7504175; doi:10.1128/mcb.13.12.7418-7428.1993; Sun XJ Crimmins DL Myers MG Jr Miralpeix M White MF Pleiotropic insulin signals are engaged by multisite phosphorylation of IRS-1 Mol Cell Biol 1993 13 7418 7428 7504175 10.1128/mcb.13.12.7418-7428.19 || [110]; PMID 9756938; doi:10.1074/jbc.273.41.26908; Myers MG Jr Mendez R Shi P Pierce JH Rhoads R White MF The COOH-terminal tyrosine phosphorylation sites on IRS-1 bind SHP-2 and negatively regulate insulin signaling J Biol Chem 1998 273 26908 26914 9. The settings on record: ref 107 (IRS-1 Y896 also 108); read-out: Relative affinity (IC50); cited from earlier work.

Test [7] deals with T2, Crk SH2 domain. Kind of test: SPOT peptide array. The settings on record: GST-SH2 0.25 μM, membrane-bound peptide, 1 mM DTT, LiCor read-out. The format is binding.
From the text: as §1, §2

Test [8] deals with panel of 50 SH2 domains. Kind of test: SPOT peptide array probed with each of 50 GST-SH2 domains. The settings on record: SH2 domains with intensity >3X array mean; GST-SH2 0.25 μM, 1 mM DTT. Type of test: binding. The method in brief: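 Each GST-fused SH2 domain was overlaid on 192 membrane-synthesized pTyr peptides (11-mers, 4 N-terminal and 6 C-terminal flanking residues) and read with anti-GST and near-infrared secondary antibodies. Binding called relative to membrane mean intensity (>3× positive, <1× negative); GST-only probes defined nonspecific peptides.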

Test [9] has as its target T4, Ptpn11_N SH2 domain. Kind of test: Fluorescence polarization solution binding. The settings on record: Rhodamine B-labeled peptide, GST-SH2, Beacon 2000, read-out: Affinity (KD). The source says: To verify the binding results obtained from addressable peptide arrays we employed an orthogonal method of determining SH2 interactions with peptide ligands. We measured the dissociation constants of 60 binary SH2-peptide pairs in solution by fluorescence polarization (Table 2, Additional file 2: Figures S3A-C).
Peptides were synthesized using FMOC-chemistry onto pre-loaded tenta-gel resins. Peptides were then labeled with Rhodamine B (Abbey Color) and then cleaved using trifluoroacetic acid. Peptides were lyophilized and then purified using a LC/MS (Agilent 2100). Dissociation constants were measured using the Beacon 2000 (Invitrogen) as previously described.
Binding Affinities determined by Fluorescence Polarization. Rhodamine B-labeled peptides were mixed with varying concentrations of GST-tagged SH2 domains. Fluorescence polarization measurements were read on a Beacon 2000 (Invitrogen). The curves were fit to a Michaelis-Menten equation to calculate the dissociation constant, KD. […] (C) Affinity measurements that fell below the 2X mean intensity and were considered array negative on the SPOT array.
A general note: Fluorescence polarisation rises when a labelled molecule tumbles more slowly, as on binding a larger partner.

Test [10] deals with Nck1 SH2 domain (Homo sapiens, UniProt P16333). Kind of test: SPOT peptide array. The format is binding. Particulars: GST-SH2 0.25 μM, membrane-bound peptide, 1 mM DTT, LiCor read-out.
From the text: as §1, §2

Chain of CrkL SH2 domain (P46109 14-102 limits assumed): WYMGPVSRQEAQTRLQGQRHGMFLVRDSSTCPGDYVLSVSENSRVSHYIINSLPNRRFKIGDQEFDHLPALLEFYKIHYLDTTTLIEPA

With “GSGDpYMPMSPK [11-mer phosphotyrosine peptide, printed as IRS-1 (Y612); footnote says Y632]”, the Array positive entry in [1] was “No (Peptide spots with average intensity values between 1X-3X the array mean were defined as ‘indeterminate’. Those with intensities below 1X mean were defined as array negative)”. For the same compound, the “Relative affinity (ID50)” value in test [2] is recorded as “ID50 = 0.7-1.1 μM”.

Consider “SSKDLVSCApYQVARGMED (SSKDLVSCAYQVARGMED)”, for which the Kd in test [3] is 0.26 µM; in test [4] it was 0.012 µM; in test [5], 0.24 µM.

For “DLSApYASISFQ (DLSAYASISFQ) [11-mer phosphotyrosine peptide, IRS-1 (Y1229)]”, the 50% inhibitory concentration (IC50) in test [6] is 25 ± 4.2 µM.

Regarding “ARDIHHIDYpYKKTTNGRD (ARDIHHIDYYKKTTNGRD)”, the Kd in test [3] was 1.11 µM.

Regarding “EQDEYDIPRHL [11-mer peptide, p130Cas (Y234)]”, the Array positive entry in [7] was “Yes (Array-positive binding was ascribed to interactions with intensities greater than three times the array mean)”. The “Other SH2 domains bound (additional array-positive SH2 domains)” value (from here on “Other SH2 domains bound”) in test [8] is on record as “Brk, Crkl, Fyn, Lck, Lyn, Shc1, Yes”.

As to “ATDDpYAVPPPR [11-mer phosphotyrosine peptide, p62DOK1 (Y409), similar to p130Cas (Y410)]”, the Array positive entry in [7] was “Yes (Array-positive binding was ascribed to interactions with intensities greater than three times the array mean)”. The “Other SH2 domains bound” value in [8] is reported as “Crkl, Hck”.

For the compound “PQDIYDVPPVR [11-mer peptide, P130Cas (Y249)]”, in test [7], the Array positive entry is on record as “Yes (Array-positive binding was ascribed to interactions with intensities greater than three times the array mean)”. Moreover, the “Other SH2 domains bound” value in test [8] is “Crkl, Zap70_N”.

In the case of “DPNGpYMMMSPS (DPNGYMMMSPS) [11-mer phosphotyrosine peptide, IRS-1 (Y662)]”, in test [6], the IC50 is 96 ± 13 µM.

On to “ELSNpYICMGGK (ELSNYICMGGK) [11-mer phosphotyrosine peptide, IRS-1 (Y465)]”, for which the half-maximal inhibitory concentration (IC50) in [6] is 48 ± 16 µM.

In the case of `CC(C)[C@H](NC(=O)[C@H](CC(=O)O)NC(=O)[C@H](CCC(=O)O)NC(=O)[C@H](C)N)C(=O)N[C@@H](Cc1ccc(OP(=O)(O)O)cc1)C(=O)N[C@@H](CC(=O)O)C(=O)N[C@H](C(=O)N1CCC[C@H]1C(=O)N1CCC[C@H]1C(=O)N1CCC[C@H]1C(=O)N[C@@H](C)C(=O)O)C(C)C` [AEDVpYDVPPPA], the Kd in test [9] was more than 50 µM.

Take “SIEEpYTEMMPA (SIEEYTEMMPA) [11-mer phosphotyrosine peptide, IRS-1 (Y551)]”: in test [6], the IC50 is 11 ± 1 µM.

Take “SDDDpYDDVDIP [11-mer phosphotyrosine control peptide, HPK1 (Y379), reference compound]”: in test [10], the Array positive entry is given as “Yes (Array-positive binding was ascribed to interactions with intensities greater than three times the array mean)”. In test [8], the “Other SH2 domains bound” value was “Fer, SLNK (similar to BLNK and SLP76)”.

What is called Kd is a measure of binding affinity in units of concentration. Usually IC50 stands for the concentration needed to halve the response being measured.

These data come from publication PMC3514216, “SRC Homology 2 Domain Binding Sites in Insulin, IGF-1 and FGF receptor mediated signaling networks reveal an extensive potential interactome” (Cell Communication and Signaling : CCS, 2012).
